Experimental data: US20250179120A1, “CYCLIC PEPTIDE OR SALT THEREOF, AND MDMX INHIBITOR” (FUJIFILM Corporation, priority 2022, published 2025)
Numbered stars: 1 amine (or outer) side, 2 acyl side, 3 side chain; on linkers, the order of the positions; unused ones are H or OH. Square brackets hold non-standard residues; d marks the D form. Peptide text beside a SMILES is read from it. Ala(4-thiazolyl) = N[C@@H](Cc1cscn1)C(=O)O; Phe(4-Cl) = N[C@@H](Cc1ccc(Cl)cc1)C(=O)O; X1 = O=C(CSC[C@H](Cc1cscn1)N[*:1])[*:2]; Phe(4-F) = N[C@@H](Cc1ccc(F)cc1)C(=O)O; NHCH2CH2SCH2CO = O=C(CSCCN[*:1])[*:2]; NMeF = CN[C@@H](Cc1ccccc1)C(=O)O; Tle = CC(C)(C)[C@H](N)C(=O)O; hSer = N[C@@H](CCO)C(=O)O; NMeA = CN[C@@H](C)C(=O)O; dNMeA = CN[C@H](C)C(=O)O; Nme = COCCNCC(=O)O

Assay: Evaluation of cell membrane permeability (MDCKII permeation test, Papp)
Type: in vitro ADME
Conditions: MDCK, MDCKII cell layer, 10 μM in HBSS, apical to basal, 37° C.; for Papp A→B: 2 hours
Method: Evaluation of the cell membrane permeability of the cyclic peptide according to the embodiment of the present invention was carried out.
300 μL of MDCKII cells (ECACC standard cell line) were seeded at a density of 1.0×10^6 cells/mL onto an insert (dedicated for a 24-well plate, pore diameter: 3.0 μm, manufactured by Corning Incorporated) and cultured at 37° C. in a 5% CO2 environment. After three days, the electric resistance value of the cell layer was measured (using a measuring device), and it was confirmed that the cell layer had high barrier properties (>100 Ω·cm^2).
After the insert was washed by being immersed in HBSS (phenol red-free, the same applies hereinafter), 200 μL of a sample prepared in 10 μM/HBSS was added thereto, and the insert was allowed to stand in a low-adsorption 24-well plate containing 900 μL of HBSS (37° C., 5% CO2). After 2 hours, each liquid of an upper layer (apical) and a lower layer (basal) of the insert (10 μL for apical and 500 μL for basal) was recovered. After testing, no leakage was confirmed with Lucifer Yellow, which is a non-permeable fluorescent dye.
The device used was LC/MS/MS (triple quadrupole type).
Eluent: A) 5 mM ammonium formate, 0.2% formic acid/H2O, B) 0.1% formic acid/MeCN, flow rate: 0.5 mL/min, injection volume: 2 μL, column: ACQUITY UPLC BEH C18 Column, 1.7 μm, 2.1 mm×50 mm (manufactured by Waters Corporation), temperature: 70° C., gradient (% B): 2% (0 to 0.5 min)→98% (2 to 3 min)→2% (3 to 5 min), ionization: ESI, detection mode: MRM (positive)
Based on the calculation expression shown in Expression (1), a permeability coefficient Papp, which represents the membrane permeability, was calculated from each quantitative value.
C0: initial concentration (10 μM)
S: surface area (0.33 cm^2) of single layer membrane
dC/dt: concentration change at basal [μM/s]

Row | SMILES | Papp A→B [×10⁻⁶ cm/s] | Papp A→B at 2 h, 10 μM (dog) [×10⁻⁶ cm/s]
1 | COCC[C@@H]1NC(=O)[C@@H](C)N(C)C(=O)[C@H](Cc2ccccc2)N(C)C(=O)[C@H](Cc2ccc(Cl)cc2)NC(=O)[C@H]([C@@H](C)O)NC(=O)[C@H](Cc2ccc(F)cc2)NC(=O)[C@@H]2CCCN2C(=O)CSCCNC(=O)[C@H](C)N(C)C1=O [compound 3] (cyclo([NMeA][NHCH2CH2SCH2CO]P[Phe(4-F)]T[Phe(4-Cl)][NMeF][dNMeA][hSer](Me))) | 0.25 to 0.5 | –
2 | COCC[C@@H]1NC(=O)[C@H](C)N(C)C(=O)[C@H](Cc2ccccc2)N(C)C(=O)[C@H](Cc2ccc(Cl)cc2)NC(=O)[C@H]([C@@H](C)O)NC(=O)[C@H](Cc2ccc(F)cc2)NC(=O)[C@@H]2CCCN2C(=O)CSC[C@H](Cc2cscn2)NC(=O)[C@H](C)N(C)C1=O [compound 5] (cyclo([NMeA][hSer](Me)[NMeA][X1]P[Phe(4-F)]T[Phe(4-Cl)][NMeF])) | 0.1 to 0.25 | –
3 | COCC[C@@H]1NC(=O)[C@H]2CCCN2C(=O)[C@H](Cc2ccccc2)N(C)C(=O)[C@H](Cc2ccc(Cl)cc2)NC(=O)[C@H](C(C)(C)C)NC(=O)[C@H](Cc2ccc(F)cc2)NC(=O)[C@H](C)N(C)C(=O)[C@@H](C)N(C)C(=O)[C@H](Cc2cscn2)NC(=O)[C@H](C)N(C)C1=O [Comparative Example 1, reference compound] (cyclo([Ala(4-thiazolyl)][dNMeA][NMeA][Phe(4-F)][Tle][Phe(4-Cl)][NMeF][dP][hSer](Me)[NMeA])) | – | < 0.1
4 | COCC[C@@H]1NC(=O)[C@H](C)N(C)C(=O)[C@H](Cc2ccccc2)N(C)C(=O)[C@H](Cc2ccc(Cl)cc2)NC(=O)[C@H]([C@@H](C)O)NC(=O)[C@H](Cc2ccc(F)cc2)NC(=O)[C@@H]2CCCN2C(=O)CSCCNC(=O)[C@H](C)N(C)C1=O [compound 4] (cyclo([NMeA][hSer](Me)[NMeA][NHCH2CH2SCH2CO]P[Phe(4-F)]T[Phe(4-Cl)][NMeF])) | 0.1 to 0.25 | –
5 | COCC[C@@H]1NC(=O)[C@H](C)N(C)C(=O)[C@H](Cc2ccccc2)N(C)C(=O)[C@H](Cc2ccc(Cl)cc2)NC(=O)[C@H]([C@@H](C)O)NC(=O)[C@H](Cc2ccc(F)cc2)NC(=O)CN(CCOC)C(=O)CSC[C@H](Cc2cscn2)NC(=O)[C@H](C)N(C)C1=O [compound 6] (cyclo([NMeA][hSer](Me)[NMeA][X1][Nme][Phe(4-F)]T[Phe(4-Cl)][NMeF])) | 0.1 to 0.25 | –
